Reference: the supplement of paper PMC10307832

What was measured:
Experiment in all cases: relative viability (nuclei count vs DMSO), 5 days (fraction); higher = more cells survive
CUDC-101 + Palbociclib = compound: C#Cc1cccc(Nc2ncnc3cc(OC)c(OCCCCCCC(=O)NO)cc23)c1 [CUDC-101] + CC(=O)c1c(C)c2cnc(Nc3ccc(N4CCNCC4)cn3)nc2n(C2CCCC2)c1=O [Palbociclib] (partner 0.5 µM)
In short: (§1)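 Nuclei were stained with Hoechst during a one-step fixation (final 0.05% Triton X-100, 1% formaldehyde, 1 ug/ml Hoechst) carried out 5 days after dosing, then counted on 4× images. The cells, lung cancer lines in 1536-well plates, had been dosed by pin tool the day after seeding with one drug alone or a fixed anchor-drug dose plus five library-drug doses (not always all listed) in √10 steps. Relative viability is the nuclei count in treated wells divided by that in vehicle wells, and each value is the median of duplicate plates.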

Vandetanib + Luminespib = compound: COc1cc2/c(=N/c3ccc(Br)cc3F)nc[nH]c2cc1OCC1CCN(C)CC1 [Vandetanib] + CCNC(=O)c1noc(-c2cc(C(C)C)c(O)cc2O)c1-c1ccc(CN2CCOCC2)cc1 [Luminespib] (partner 0.01 µM)
In short: as §1

[1] = compound: C1=CC=C2C(=C1)N=C(S2)C(C#N)C3=NC(=NC=C3)NCCC4=CN=CC=C4 + Cc1nc(NC(=O)N2CCC[C@H]2C(N)=O)sc1-c1ccnc(C(C)(C)C(F)(F)F)c1 [Alpelisib] (partner 2 µM)
In short: as §1

[2] = compound: C1=CC=C2C(=C1)N=C(S2)C(C#N)C3=NC(=NC=C3)NCCC4=CN=CC=C4 + CS(=O)(=O)CCNCc1ccc(-c2ccc3ncnc(Nc4ccc(OCc5cccc(F)c5)c(Cl)c4)c3c2)o1 [Lapatinib] (partner 2 µM)
In short: as §1

Row | Cell Line | relative viability (CUDC-101 + Palbociclib; first compound 0.01 µM) | relative viability (CUDC-101 + Palbociclib; first compound 0.03162 µM) | relative viability (CUDC-101 + Palbociclib; first compound 0.1 µM) | relative viability (CUDC-101 + Palbociclib; first compound 0.3162 µM) | relative viability (CUDC-101 + Palbociclib; first compound 1 µM) | relative viability (Vandetanib + Luminespib; first compound 0.02 µM) | relative viability (Vandetanib + Luminespib; first compound 0.06325 µM) | relative viability (Vandetanib + Luminespib; first compound 0.6325 µM) | relative viability (Vandetanib + Luminespib; first compound 2 µM) | relative viability ([1]; first compound 0.005 µM) | relative viability ([1]; first compound 0.01581 µM) | relative viability ([1]; first compound 0.05 µM) | relative viability ([1]; first compound 0.1581 µM) | relative viability ([1]; first compound 0.5 µM) | relative viability ([2]; first compound 0.005 µM) | relative viability ([2]; first compound 0.01581 µM) | relative viability ([2]; first compound 0.05 µM) | relative viability ([2]; first compound 0.1581 µM) | relative viability ([2]; first compound 0.5 µM) | relative viability (Vandetanib + Luminespib; first compound 0.2 µM)
1 | NCI-H650 | 0.402 | 0.365 | 0.302 | 0.374 | 0.29 | 0.843 | 0.667 | 0.992 | 0.766 | 0.859 | 1.22 | 1.04 | 1.18 | 1.2 | 0.665 | 0.625 | 0.994 | 1.45 | 0.718 | –
2 | LXF-289 | 0.6 | 0.604 | 0.571 | 0.589 | 0.515 | 0.626 | 0.627 | 0.718 | 0.624 | 0.979 | 1.15 | 1.04 | 1.12 | 0.998 | 0.803 | 0.914 | 0.915 | 1 | 0.864 | 0.744
3 | CAL-12T | 0.81 | 0.448 | 0.333 | 0.412 | 0.34 | 0.367 | 0.461 | 0.307 | 0.232 | 0.982 | 1.23 | 1.31 | 1.49 | 1.05 | 0.782 | – | – | 0.675 | 0.674 | 0.183
4 | SK-MES-1 | 0.301 | 0.33 | 0.341 | 0.305 | 0.316 | 0.788 | 0.506 | 0.594 | 0.388 | 1.17 | 0.979 | 1.12 | 1.14 | 0.859 | 0.455 | 0.542 | 0.408 | 0.473 | 0.445 | 0.758
5 | SW 1573 | 0.376 | 0.346 | 0.441 | 0.501 | 0.315 | 0.383 | 0.227 | 0.24 | 0.18 | 0.628 | 0.726 | – | 0.803 | 0.686 | 1.12 | 1.13 | 1.04 | 1.35 | 1.12 | 0.415
6 | NCI-H1975 | 0.535 | 0.623 | 0.601 | 0.673 | 0.536 | 0.347 | 0.27 | 0.173 | 0.236 | 0.352 | 0.669 | 0.62 | 0.668 | 0.403 | 0.554 | 0.91 | 0.831 | 0.908 | 0.62 | 0.224
7 | NCI-H647 | 0.417 | 0.345 | 0.383 | 0.386 | 0.253 | 0.334 | 0.337 | 0.283 | 0.285 | – | 1.18 | 0.876 | 1.41 | 0.599 | – | 1.34 | 1.11 | 1.3 | 0.546 | 0.0629
8 | NCI-H322M | 0.515 | 0.47 | 0.465 | 0.497 | 0.436 | 0.805 | 0.8 | 0.834 | 0.504 | 0.825 | 0.77 | 0.68 | 0.899 | 0.709 | 0.545 | 0.487 | 0.592 | 0.687 | 0.504 | 0.889
